Experimental data from ChEMBL document CHEMBL4007416, “Thieno[3,2-b]pyrrole-5-carboxamides as New Reversible Inhibitors of Histone Lysine Demethylase KDM1A/LSD1. Part 2: Structure-Based Drug Design and Structure-Activity Relationship” (J Med Chem, 2017).
Active and inactive are the calls of the source. The rule behind the calls is not given here.

How the values were obtained:
LSD1/CoREST complex [1] = molecular target: T1, LSD1/CoREST complex (Homo sapiens, UniProt O60341); test: Inhibition of recombinant human KDM1A/CoREST complex expressed in Escherichia coli using [Lys(Me1)4]-Histone H3 (1 to 21 residues)-GGK(biotin) as substrate incubated for 20 mins measured after 1 hr by TR-FRET assay
LSD1/CoREST complex [2] = molecular target: T1, LSD1/CoREST complex; test: Competitive inhibition of recombinant human KDM1A/CoREST complex expressed in Escherichia coli using H3K4me peptide as substrate preincubated for 15 mins followed by substrate addition measured for 12 mins by Lineweaver-Burk plot analysis
[3] = test system: CN1CCC(Oc2ccc(OCc3ccccc3NC(=O)c3cc4sccc4n3C)cc2)CC1; test: Inhibition of recombinant human KDM1A/CoREST complex expressed in Escherichia coli assessed as Vmax for substrate using H3K4me peptide as substrate preincubated for 15 mins followed by substrate addition measured for 12 mins by Lineweaver-Burk plot analysis
[4] = test system: CN1CCC(Oc2ccc(OCc3ccccc3NC(=O)c3cc4sccc4n3C)cc2)CC1; test: Inhibition of recombinant human KDM1A/CoREST complex expressed in Escherichia coli assessed as Km for substrate using H3K4me peptide as substrate preincubated for 15 mins followed by substrate addition measured for 12 mins by Lineweaver-Burk plot analysis
[5] = molecular target: T2, Amine oxidase [flavin-containing] A (Homo sapiens, UniProt P21397); test: Inhibition of recombinant human MAOA incubated for 15 mins measured after 30 mins by luminescence-Glo assay
T2 sequence (P21397 whole entry): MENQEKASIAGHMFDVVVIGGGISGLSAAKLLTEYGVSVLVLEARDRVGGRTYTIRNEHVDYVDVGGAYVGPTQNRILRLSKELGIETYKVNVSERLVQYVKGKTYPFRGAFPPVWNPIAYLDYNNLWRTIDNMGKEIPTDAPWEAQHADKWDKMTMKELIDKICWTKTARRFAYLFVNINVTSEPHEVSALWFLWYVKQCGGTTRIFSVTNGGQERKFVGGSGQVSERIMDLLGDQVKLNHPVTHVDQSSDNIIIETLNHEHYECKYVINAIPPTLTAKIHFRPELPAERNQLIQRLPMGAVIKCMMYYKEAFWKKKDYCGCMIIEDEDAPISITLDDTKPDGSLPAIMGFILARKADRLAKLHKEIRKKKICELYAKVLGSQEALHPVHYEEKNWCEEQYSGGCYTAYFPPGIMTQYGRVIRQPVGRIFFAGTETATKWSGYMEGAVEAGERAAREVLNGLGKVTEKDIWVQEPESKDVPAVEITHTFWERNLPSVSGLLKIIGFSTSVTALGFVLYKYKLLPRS

[6] = molecular target: Lysine-specific histone demethylase 1A (Homo sapiens) (UniProt O60341); test: Inhibition of KDM1A in human THP1 cells assessed as increase in CD86 expression level at 0.5 uM after 48 hrs by flow cytometric analysis; assay type: cell-based
THP-1 [7] = test: Induction of apoptosis in human THP1 cells at 1 uM after 72 hrs by Annexin V-propidium iodide double staining based flow cytometry; assay type: functional, cell-based
THP-1 [8] = test: Cell cycle arrest in human THP1 cells at 1 uM after 72 hrs by propidium iodide staining based flow cytometry; assay type: functional
MV4-11 = test: Antiproliferative activity against human MV4-11 cells
THP-1 [9] = test: Anticlonogenic activity against human THP1 cells assessed as inhibition of methylcellulose colony formation at 1 uM after 13 days relative to control; assay type: functional; settings: THP-1, 312 h
[10] = molecular target: T3, Amine oxidase [flavin-containing] B (Homo sapiens, UniProt P27338); test: Inhibition of recombinant human MAOB incubated for 15 mins measured after 30 mins by luminescence-Glo assay
T3 sequence (P27338 whole entry): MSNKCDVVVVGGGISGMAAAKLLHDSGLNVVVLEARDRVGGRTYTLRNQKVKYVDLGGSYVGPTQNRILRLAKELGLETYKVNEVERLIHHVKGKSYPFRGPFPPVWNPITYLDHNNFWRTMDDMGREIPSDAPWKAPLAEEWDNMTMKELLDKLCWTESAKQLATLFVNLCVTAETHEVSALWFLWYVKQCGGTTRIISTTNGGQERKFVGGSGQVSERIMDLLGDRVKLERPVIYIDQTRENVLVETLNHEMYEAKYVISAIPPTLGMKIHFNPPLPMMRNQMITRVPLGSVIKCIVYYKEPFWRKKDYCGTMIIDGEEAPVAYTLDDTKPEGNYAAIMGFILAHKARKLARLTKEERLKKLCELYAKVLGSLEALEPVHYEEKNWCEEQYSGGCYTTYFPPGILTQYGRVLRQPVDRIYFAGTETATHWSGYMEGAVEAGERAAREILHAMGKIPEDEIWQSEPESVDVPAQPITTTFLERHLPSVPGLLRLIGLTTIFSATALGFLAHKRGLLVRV

[11] = molecular target: Lysine-specific histone demethylase 1A (Homo sapiens) (UniProt O60341); test: Inhibition of KDM1A in human THP1 cells assessed as increase in CD11b expression level at 0.5 uM after 48 hrs by flow cytometric analysis; assay type: cell-based
NB-4 = test: Antiproliferative activity against human NB4 cells
THP-1 [12] = test: Antiproliferative activity against human THP1 cells

Compound | IC50 (LSD1/CoREST complex [1]) | further results
Cn1c(C(=O)Nc2ccccc2COc2ccc(OC3CCNCC3)cc2)cc2sccc21 | 0.09 to 0.094 µM | 
CNCCCOc1ccc(OCc2ccccc2NC(=O)c2cc3sccc3n2C)cc1 | 1.3 µM | 
Cn1c(C(=O)Nc2ccccc2COc2ccc(OCC3CCNCC3)cc2)cc2sccc21 | 0.149 µM | 
COCc1cccc(NC(=O)c2cc3sccc3n2C)c1COc1ccc(OC2CCNCC2)cc1 | 0.0746 to 0.075 µM | 
CN1CCC(Oc2ccc(OCc3ccc(NC(=O)c4cc5sccc5n4C)cc3)cc2)CC1 | 2.5 µM | 
Cn1c(C(=O)Nc2ccccc2OCc2ccncc2)cc2sccc21 | > 100 µM | 
COCc1ccc(NC(=O)c2cc3sccc3n2C)cc1 | > 100 µM | 
Cn1c(C(=O)Nc2ccccc2COc2ccc(O[C@H]3CC[C@@H](N)CC3)cc2)cc2sccc21 | 0.121 µM | 
CN1CCC(Oc2ccc(OCc3ccccc3NC(=O)c3cc4sccc4n3C)cc2)CC1 | 0.31 to 0.331 µM | Ki (LSD1/CoREST complex [2]): 2.3 µM
COCc1ccccc1NC(=O)c1cc2sccc2n1C | > 100 µM | 
Cn1c(C(=O)Nc2ccccc2COc2ccc(OCC3CNC3)cc2)cc2sccc21 | 0.618 µM | 
COc1ccc(NC(=O)c2cc3sccc3n2C)cc1 | > 100 µM | 
LSD1/CoREST complex (Homo sapiens) (from UniProt O60341+Q9UKL0) |  | Vmax [3]: 226 µmol/min; Km [4]: 1.5 µM
Cn1c(C(=O)Nc2ccccc2COc2ccc(OC3CCN(Cc4ccccc4)CC3)cc2)cc2sccc21 | > 100 µM | 
CN1CCN(Cc2ccc(OCc3ccccc3NC(=O)c3cc4sccc4n3C)cc2)CC1 | 2.9 µM | 
Cn1c(C(=O)Nc2ccccc2COc2ccncc2)cc2sccc21 | > 100 µM | 
CN1CCC(Oc2ccccc2OCc2ccccc2NC(=O)c2cc3sccc3n2C)CC1 | 68.2 µM | 
Cn1c(C(=O)Nc2ccccc2COc2ccc(OCC3CCNC3)cc2)cc2sccc21 (stereo unspecified) | 0.022 µM | 
CC(C)OCc1cccc(NC(=O)c2cc3sccc3n2C)c1COc1ccc(OC2CCNCC2)cc1 | 0.066 µM | 
CC(=O)N1CCC(Oc2ccc(OCc3ccccc3NC(=O)c3cc4sccc4n3C)cc2)CC1 | > 100 µM | 
COCc1cccc(NC(=O)c2cc3sccc3n2C)c1COc1ccc(OC2CCCNCC2)cc1 (stereo unspecified) | 0.0292 µM | 
Cn1c(C(=O)Nc2cccc(OCc3ccncc3)c2)cc2sccc21 | 5.8 µM | 
Cn1c(C(=O)Nc2ccccc2COc2ccc(CNC(=N)N)cc2)cc2sccc21 | 3.2 µM | 
CCOCc1cccc(NC(=O)c2cc3sccc3n2C)c1COc1ccc(OC[C@@H]2CCNC2)cc1 | 0.0078 µM | IC50 [5]: 41.3 µM; inhibition [6]: Active; Activity (THP-1 [7]): inactive; Activity (THP-1 [8]): inactive; IC50 (MV4-11): 2.5 µM; inhibition at 1 µM (THP-1 [9]): 70.5%; IC50 [10]: > 100 µM; inhibition [11]: Active; IC50 (NB-4): 1.2 µM; IC50 (THP-1 [12]): 2.4 µM
